Assay in all cases: DiscoverX KinomeScreen kinase selectivity competition binding assay
For experiment [1], the target named is T1, panel of ninety-seven kinases (Homo sapiens, UniProt O14920).
T1 construct: purchased DiscoverX; host or cells: T7 phage in E. coli (BL21-derived) for most kinases; HEK-293 for the rest
The following applies: IKBKB; read-out: % Ctrl @ 3 μM. How it is done:
(§1) Atropisomer A-2 has been tested for off-target activity against a panel of ninety-seven kinases distributed across the kinome at a concentration of 3 μM using the DiscoverX KinomeScreen assay. The DiscoverX KinomeScreen assay is a site-directed competition binding assay which measures the binding affinity of a compound to a kinase, by use of a solid supported control compound which can bind or capture the kinases in solution. In the absence of a kinase-inhibitor test compound, all of the kinase will bind to the solid support. If a kinase-inhibitor test compound is added to the assay mix, the amount of kinase binding to the solid support will be reduced, the extent of reduction being dependent on the potency of the test compound as a kinase inhibitor. […] For most assays, kinase-tagged T7 phage strains were grown in parallel in 24-well blocks in an E. coli host derived from the BL21 strain. E. coli were grown to log-phase and infected with T7 phage from a frozen stock (multiplicity of infection=0.4) and incubated with shaking at 32° C. until lysis (90-150 minutes). The lysates were centrifuged (6,000×g) and filtered (0.2 μm) to remove cell debris. The remaining kinases were produced in HEK-293 cells and subsequently tagged with DNA for qPCR detection. Streptavidin-coated magnetic beads were treated with biotinylated small molecule ligands for 30 minutes at room temperature to generate affinity resins for kinase assays. The liganded beads were blocked with excess biotin and washed with blocking buffer (SeaBlock (Pierce), 1% BSA, 0.05% Tween 20, 1 mM DTT) to remove unbound ligand and to reduce non-specific phage binding. […] Test compounds were prepared as 40× stocks in 100% DMSO and directly diluted into the assay. All reactions were performed in polypropylene 384-well plates in a final volume of 0.02 ml. […] The beads were then re-suspended in elution buffer (1×PBS, 0.05% Tween 20, 0.5 μM non-biotinylated affinity ligand) and incubated at room temperature with shaking for 30 minutes. The kinase concentration in the eluates was measured by qPCR. Compounds that bind the kinase active site and directly (sterically) or indirectly (allosterically) prevent kinase binding to the immobilized ligand, will reduce the amount of kinase captured on the solid support. […] The strength of binding of the test molecule to the kinase can be expressed as the percent control (% Ctrl) The compound(s) were screened at 3000 nM concentration, and results for primary screen binding interactions are reported as ‘% Ctrl’, where lower numbers indicate stronger hits in the matrix on the following page(s). [formula] • negative control=DMSO (100% Ctrl) • positive control=control compound (0% Ctrl)

In experiment [2] the target is T2, panel of ninety-seven kinases (Homo sapiens, UniProt O60674).
T2 construct: purchased DiscoverX; host or cells: T7 phage in E. coli (BL21-derived) for most kinases; HEK-293 for the rest
The following applies: JAK2; read-out: % Ctrl @ 3 μM. On the procedure: as §1

For experiment [3], the target named is T3, panel of ninety-seven kinases (Homo sapiens, UniProt P16234).
T3 construct: purchased DiscoverX; host or cells: T7 phage in E. coli (BL21-derived) for most kinases; HEK-293 for the rest
T3 sequence (P16234 24-1089): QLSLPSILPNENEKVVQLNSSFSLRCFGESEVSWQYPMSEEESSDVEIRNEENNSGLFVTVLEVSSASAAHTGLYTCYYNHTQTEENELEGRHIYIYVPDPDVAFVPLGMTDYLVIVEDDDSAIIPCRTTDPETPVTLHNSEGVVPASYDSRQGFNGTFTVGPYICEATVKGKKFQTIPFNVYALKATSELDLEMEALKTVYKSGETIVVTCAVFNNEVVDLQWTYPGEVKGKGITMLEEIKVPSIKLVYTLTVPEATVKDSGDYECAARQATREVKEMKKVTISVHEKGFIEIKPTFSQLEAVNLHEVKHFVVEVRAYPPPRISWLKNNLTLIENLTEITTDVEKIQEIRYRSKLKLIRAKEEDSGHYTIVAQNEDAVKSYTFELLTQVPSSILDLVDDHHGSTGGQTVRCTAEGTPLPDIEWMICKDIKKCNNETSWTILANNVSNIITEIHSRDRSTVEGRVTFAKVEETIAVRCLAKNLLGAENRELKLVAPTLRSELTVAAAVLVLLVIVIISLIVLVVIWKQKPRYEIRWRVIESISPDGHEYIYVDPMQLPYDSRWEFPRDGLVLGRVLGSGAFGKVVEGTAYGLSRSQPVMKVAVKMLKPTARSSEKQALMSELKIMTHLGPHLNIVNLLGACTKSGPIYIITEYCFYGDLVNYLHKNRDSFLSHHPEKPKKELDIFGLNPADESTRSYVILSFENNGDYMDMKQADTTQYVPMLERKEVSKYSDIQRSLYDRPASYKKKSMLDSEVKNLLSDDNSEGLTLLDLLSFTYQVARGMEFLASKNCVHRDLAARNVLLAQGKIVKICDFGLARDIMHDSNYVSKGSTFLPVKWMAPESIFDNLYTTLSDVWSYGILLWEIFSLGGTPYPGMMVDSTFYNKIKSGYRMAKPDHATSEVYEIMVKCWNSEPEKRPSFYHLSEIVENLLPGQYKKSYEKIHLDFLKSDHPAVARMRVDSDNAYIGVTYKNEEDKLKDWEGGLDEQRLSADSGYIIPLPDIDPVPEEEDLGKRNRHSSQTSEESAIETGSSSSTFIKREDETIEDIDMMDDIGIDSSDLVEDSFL
The following applies: PDGFRA; read-out: % Ctrl @ 3 μM. How it is done: as §1

The target in experiment [4] is T4, panel of ninety-seven kinases (Homo sapiens, UniProt P24941).
T4 construct: purchased DiscoverX; host or cells: T7 phage in E. coli (BL21-derived) for most kinases; HEK-293 for the rest
The following applies: CDK2; read-out: % Ctrl @ 3 μM. How it is done:
as §1

Experiment [5] concerns the target T5, panel of ninety-seven kinases (Homo sapiens, UniProt P27448).
T5 construct: purchased DiscoverX; host or cells: T7 phage in E. coli (BL21-derived) for most kinases; HEK-293 for the rest
The conditions noted are these: MARK3; read-out: % Ctrl @ 3 μM. On the procedure: as §1

Experiment [6] concerns the target T6, panel of ninety-seven kinases (Homo sapiens, UniProt P29597).
T6 construct: purchased DiscoverX; host or cells: T7 phage in E. coli (BL21-derived) for most kinases; HEK-293 for the rest
The conditions noted are these: TYK2; read-out: % Ctrl @ 3 μM. How it is done: as §1

For experiment [7], the target named is T7, panel of ninety-seven kinases (Homo sapiens, UniProt P31751).
T7 construct: purchased DiscoverX; host or cells: T7 phage in E. coli (BL21-derived) for most kinases; HEK-293 for the rest
The following applies: AKT2; read-out: % Ctrl @ 3 μM. On the procedure:
as §1

Experiment [8] concerns the target T8, panel of ninety-seven kinases (Homo sapiens, UniProt P35968).
T8 construct: purchased DiscoverX; host or cells: T7 phage in E. coli (BL21-derived) for most kinases; HEK-293 for the rest
The following applies: KDR; read-out: % Ctrl @ 3 μM. On the procedure:
as §1

Experiment [9] deals with T9, panel of ninety-seven kinases (Homo sapiens, UniProt P36888).
T9 construct: purchased DiscoverX; host or cells: T7 phage in E. coli (BL21-derived) for most kinases; HEK-293 for the rest
The conditions noted are these: FLT3; read-out: % Ctrl @ 3 μM. On the procedure:
as §1

The target of experiment [10] is T10, panel of ninety-seven kinases (Homo sapiens, UniProt P45983).
T10 construct: purchased DiscoverX; host or cells: T7 phage in E. coli (BL21-derived) for most kinases; HEK-293 for the rest
The following applies: MAPK8; read-out: % Ctrl @ 3 μM. How it is done: as §1

In experiment [11] the target is T11, panel of ninety-seven kinases (Homo sapiens, UniProt P49841).
T11 construct: purchased DiscoverX; host or cells: T7 phage in E. coli (BL21-derived) for most kinases; HEK-293 for the rest
The following applies: GSK3B; read-out: % Ctrl @ 3 μM. On the procedure:
as §1

The target of experiment [12] is T12, panel of ninety-seven kinases (Homo sapiens, UniProt P50750).
T12 construct: purchased DiscoverX; host or cells: T7 phage in E. coli (BL21-derived) for most kinases; HEK-293 for the rest
The conditions noted are these: CDK9; read-out: % Ctrl @ 3 μM. On the procedure:
as §1

Experiment [13] addresses T13, panel of ninety-seven kinases (Homo sapiens, UniProt P53779).
T13 construct: purchased DiscoverX; host or cells: T7 phage in E. coli (BL21-derived) for most kinases; HEK-293 for the rest
The following applies: MAPK10; read-out: % Ctrl @ 3 μM. How it is done:
as §1

In experiment [14] the target is T14, panel of ninety-seven kinases (Homo sapiens, UniProt P78368).
T14 construct: purchased DiscoverX; host or cells: T7 phage in E. coli (BL21-derived) for most kinases; HEK-293 for the rest
T14 sequence (P78368 whole entry): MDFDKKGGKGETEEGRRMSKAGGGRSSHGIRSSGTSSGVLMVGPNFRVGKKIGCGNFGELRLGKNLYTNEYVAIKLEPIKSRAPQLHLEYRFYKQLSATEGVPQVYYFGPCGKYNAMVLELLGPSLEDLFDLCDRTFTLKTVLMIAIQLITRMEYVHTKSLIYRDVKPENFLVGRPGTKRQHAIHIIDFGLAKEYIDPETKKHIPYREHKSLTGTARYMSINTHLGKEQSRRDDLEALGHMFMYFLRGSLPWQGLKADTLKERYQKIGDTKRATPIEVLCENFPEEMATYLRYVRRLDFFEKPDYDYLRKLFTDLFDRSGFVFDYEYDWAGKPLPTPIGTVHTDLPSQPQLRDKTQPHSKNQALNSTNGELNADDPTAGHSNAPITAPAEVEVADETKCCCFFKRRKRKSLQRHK
The conditions noted are these: CSNK1G2; read-out: % Ctrl @ 3 μM. How it is done: as §1

In experiment [15] the target is T15, panel of ninety-seven kinases (Homo sapiens, UniProt Q00536).
T15 construct: purchased DiscoverX; host or cells: T7 phage in E. coli (BL21-derived) for most kinases; HEK-293 for the rest
The conditions noted are these: CDK16; read-out: % Ctrl @ 3 μM. On the procedure:
as §1

Experiment [16] addresses T16, panel of ninety-seven kinases (Homo sapiens, UniProt Q02156).
T16 construct: purchased DiscoverX; host or cells: T7 phage in E. coli (BL21-derived) for most kinases; HEK-293 for the rest
The conditions noted are these: PRKCE; read-out: % Ctrl @ 3 μM. How it is done:
as §1

In experiment [17] the target is T17, panel of ninety-seven kinases (Homo sapiens, UniProt Q13177).
T17 construct: purchased DiscoverX; host or cells: T7 phage in E. coli (BL21-derived) for most kinases; HEK-293 for the rest
The conditions noted are these: PAK2; read-out: % Ctrl @ 3 μM. How it is done: as §1

For experiment [18], the target named is T18, panel of ninety-seven kinases (Homo sapiens, UniProt Q15759).
T18 construct: purchased DiscoverX; host or cells: T7 phage in E. coli (BL21-derived) for most kinases; HEK-293 for the rest
The conditions noted are these: MAPK11; read-out: % Ctrl @ 3 μM. On the procedure:
as §1

The target in experiment [19] is T19, panel of ninety-seven kinases (Homo sapiens, UniProt Q8NI60).
T19 construct: purchased DiscoverX; host or cells: T7 phage in E. coli (BL21-derived) for most kinases; HEK-293 for the rest
T19 sequence (Q8NI60 163-647): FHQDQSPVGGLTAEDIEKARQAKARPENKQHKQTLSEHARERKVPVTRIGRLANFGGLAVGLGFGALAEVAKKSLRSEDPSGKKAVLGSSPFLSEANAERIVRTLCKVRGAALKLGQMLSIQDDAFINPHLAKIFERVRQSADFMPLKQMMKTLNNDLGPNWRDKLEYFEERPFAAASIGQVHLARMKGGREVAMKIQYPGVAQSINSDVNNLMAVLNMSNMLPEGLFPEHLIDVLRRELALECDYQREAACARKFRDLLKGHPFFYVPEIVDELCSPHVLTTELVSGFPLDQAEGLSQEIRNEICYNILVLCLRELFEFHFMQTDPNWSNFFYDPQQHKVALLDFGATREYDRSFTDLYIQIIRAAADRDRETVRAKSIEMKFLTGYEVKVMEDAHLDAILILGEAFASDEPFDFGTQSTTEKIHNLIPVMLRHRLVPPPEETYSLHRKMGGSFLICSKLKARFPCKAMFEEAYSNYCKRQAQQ
The following applies: CABC1; read-out: % Ctrl @ 3 μM. How it is done:
as §1

The target of experiment [20] is T20, panel of ninety-seven kinases (Homo sapiens, UniProt Q9H4B4).
T20 construct: purchased DiscoverX; host or cells: T7 phage in E. coli (BL21-derived) for most kinases; HEK-293 for the rest
The conditions noted are these: PLK3; read-out: % Ctrl @ 3 μM. On the procedure:
as §1

For experiment [21], the target named is T21, panel of ninety-seven kinases (Homo sapiens, UniProt Q9UM73).
T21 construct: purchased DiscoverX; host or cells: T7 phage in E. coli (BL21-derived) for most kinases; HEK-293 for the rest
T21 sequence (Q9UM73 19-1620): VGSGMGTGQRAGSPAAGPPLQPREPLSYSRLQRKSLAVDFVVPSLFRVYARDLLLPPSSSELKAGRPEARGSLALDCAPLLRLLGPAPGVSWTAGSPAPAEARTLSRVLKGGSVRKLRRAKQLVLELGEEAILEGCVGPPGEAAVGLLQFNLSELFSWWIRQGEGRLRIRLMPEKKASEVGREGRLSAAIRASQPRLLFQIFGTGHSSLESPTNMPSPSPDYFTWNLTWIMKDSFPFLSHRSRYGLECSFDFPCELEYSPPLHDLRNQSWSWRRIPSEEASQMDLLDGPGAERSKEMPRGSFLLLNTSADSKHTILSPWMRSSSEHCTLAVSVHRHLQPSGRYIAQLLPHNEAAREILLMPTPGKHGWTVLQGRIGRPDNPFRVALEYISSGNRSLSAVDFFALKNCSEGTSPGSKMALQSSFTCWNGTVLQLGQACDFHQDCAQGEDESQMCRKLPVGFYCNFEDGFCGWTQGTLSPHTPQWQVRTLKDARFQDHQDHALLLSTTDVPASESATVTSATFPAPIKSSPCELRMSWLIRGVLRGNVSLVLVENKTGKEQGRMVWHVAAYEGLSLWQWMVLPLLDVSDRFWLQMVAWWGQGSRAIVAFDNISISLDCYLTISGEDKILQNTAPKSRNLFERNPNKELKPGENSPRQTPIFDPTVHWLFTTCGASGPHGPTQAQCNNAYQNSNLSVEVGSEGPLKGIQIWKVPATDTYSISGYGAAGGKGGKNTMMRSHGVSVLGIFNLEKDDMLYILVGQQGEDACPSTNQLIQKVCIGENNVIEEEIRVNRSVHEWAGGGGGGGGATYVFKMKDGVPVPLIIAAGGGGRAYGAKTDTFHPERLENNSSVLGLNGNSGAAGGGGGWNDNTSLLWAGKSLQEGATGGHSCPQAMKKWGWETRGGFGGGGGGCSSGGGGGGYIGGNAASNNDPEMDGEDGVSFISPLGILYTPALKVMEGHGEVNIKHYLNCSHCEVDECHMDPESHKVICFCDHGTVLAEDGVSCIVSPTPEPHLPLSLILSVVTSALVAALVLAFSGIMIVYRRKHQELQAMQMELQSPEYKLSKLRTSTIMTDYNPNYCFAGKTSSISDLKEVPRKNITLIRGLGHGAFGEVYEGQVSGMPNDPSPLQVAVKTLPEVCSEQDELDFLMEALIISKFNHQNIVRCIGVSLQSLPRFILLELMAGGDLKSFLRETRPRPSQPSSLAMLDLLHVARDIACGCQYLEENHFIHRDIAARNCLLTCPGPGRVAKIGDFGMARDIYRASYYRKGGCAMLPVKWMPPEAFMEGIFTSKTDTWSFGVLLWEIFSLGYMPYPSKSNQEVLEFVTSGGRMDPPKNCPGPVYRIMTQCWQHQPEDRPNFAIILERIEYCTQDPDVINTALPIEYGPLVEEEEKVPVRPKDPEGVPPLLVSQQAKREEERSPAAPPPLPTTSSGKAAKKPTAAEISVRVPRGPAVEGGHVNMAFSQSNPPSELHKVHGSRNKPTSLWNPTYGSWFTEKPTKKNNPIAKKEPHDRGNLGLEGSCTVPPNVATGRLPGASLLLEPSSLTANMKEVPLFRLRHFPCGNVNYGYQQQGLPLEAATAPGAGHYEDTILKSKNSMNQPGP
The conditions noted are these: ALK; read-out: % Ctrl @ 3 μM. On the procedure:
as §1

T1 sequence (O14920 whole entry): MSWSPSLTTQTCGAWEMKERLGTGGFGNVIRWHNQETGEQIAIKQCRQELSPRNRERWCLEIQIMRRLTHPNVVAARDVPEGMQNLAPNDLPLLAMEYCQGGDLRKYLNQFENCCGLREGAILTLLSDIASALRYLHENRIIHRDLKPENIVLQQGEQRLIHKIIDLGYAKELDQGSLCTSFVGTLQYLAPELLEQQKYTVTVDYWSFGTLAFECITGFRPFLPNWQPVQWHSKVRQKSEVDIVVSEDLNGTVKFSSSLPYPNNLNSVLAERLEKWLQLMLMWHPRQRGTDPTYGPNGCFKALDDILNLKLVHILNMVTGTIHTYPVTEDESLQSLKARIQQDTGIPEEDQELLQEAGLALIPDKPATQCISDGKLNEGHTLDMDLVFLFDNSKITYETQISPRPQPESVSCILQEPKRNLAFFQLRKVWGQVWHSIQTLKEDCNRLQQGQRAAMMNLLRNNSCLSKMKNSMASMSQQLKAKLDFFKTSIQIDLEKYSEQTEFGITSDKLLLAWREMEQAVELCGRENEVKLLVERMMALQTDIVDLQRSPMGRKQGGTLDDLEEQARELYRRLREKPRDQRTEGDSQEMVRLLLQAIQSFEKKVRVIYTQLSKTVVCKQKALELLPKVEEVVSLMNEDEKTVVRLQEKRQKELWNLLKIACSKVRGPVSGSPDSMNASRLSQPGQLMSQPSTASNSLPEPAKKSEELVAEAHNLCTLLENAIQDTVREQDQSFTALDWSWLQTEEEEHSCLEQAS
T13 sequence (P53779 whole entry): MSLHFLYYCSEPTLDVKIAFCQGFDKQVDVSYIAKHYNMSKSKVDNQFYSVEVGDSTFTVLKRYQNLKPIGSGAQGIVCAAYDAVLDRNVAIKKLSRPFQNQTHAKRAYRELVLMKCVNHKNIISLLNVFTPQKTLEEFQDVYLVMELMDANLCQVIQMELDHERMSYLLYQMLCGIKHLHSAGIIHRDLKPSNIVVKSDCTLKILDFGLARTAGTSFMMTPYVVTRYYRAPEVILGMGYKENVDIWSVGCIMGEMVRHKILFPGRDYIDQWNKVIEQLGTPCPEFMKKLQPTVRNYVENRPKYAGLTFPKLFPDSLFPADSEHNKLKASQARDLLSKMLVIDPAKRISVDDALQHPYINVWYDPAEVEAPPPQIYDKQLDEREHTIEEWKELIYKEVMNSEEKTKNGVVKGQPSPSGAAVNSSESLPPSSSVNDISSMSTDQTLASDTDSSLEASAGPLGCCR

Regarding `CN(C)CCNC(=O)c1ccc(-c2ccc(-c3ccc(Cl)cc3)n2-c2ccccc2C(F)(F)F)cc1` (single isomer, unassigned) [Atropisomer A-2, 4-[5-(4-chlorophenyl)-1-[2-(trifluoromethyl)phenyl]pyrrol-2-yl]-N-[2-(dimethylamino)ethyl]benzamide], the percent of control kinase binding to immobilized ligand at 3 µM in experiment [1] turned out to be 96%; in [2], 80%; in [3] it was 100%; in experiment [4], 94%; in [5], 100%; in [6] it was 100%. Also, the percent of control kinase binding to immobilized ligand at 3 µM came to 100% in experiment [7]; 100% in [8]; 100% in experiment [9]; 77% in experiment [10]; 88% in experiment [11]; 97% in experiment [12]. For the same compound, the percent of control kinase binding to immobilized ligand at 3 µM worked out at 93% in experiment [13]; 100% in [14]; 100% in experiment [15]; 99% in experiment [16]; 100% in [17]; 99% in experiment [18]. The results for the percent of control kinase binding to immobilized ligand at 3 µM in experiment [19], in [20] and in experiment [21] were 63%, 87% and 89%, respectively.

(Values after patent US20220348565A1, “PHARMACEUTICAL COMPOUNDS” (SENTINEL ONCOLOGY LIMITED, priority 2019, published 2022).)
